According to ChEMBL document CHEMBL1201862, “PubChem BioAssay data set” (2004):
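Step 1: Grow cells in 96-well plates. Step 2: Expose to compound for 48 hours at 5 concentrations. Step 3: Interpolate endpoints linearly; if unreached, use highest concentration. Here, GI50 denotes the concentration required for 50% inhibition of growth.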 Active and inactive are the calls of the source. Rule as the data show it: active = GI50 up to about 1.1 µM and inactive = higher.

Tests used:
Experiment in all cases: inhibition of tumour cell growth, NCI panel, 48 h
A498 = system: A498
ACHN = system: ACHN
CAKI-1 = system: CAKI-1
COLO 205 = system: COLO 205
DU-145 = system: DU-145
EKVX = system: EKVX
IGROV-1 = system: IGROV-1
MDA-MB-231 = system: MDA-MB-231
MDA-MB-435 = system: MDA-MB-435
MOLT-4 = system: MOLT-4
NCI-H23 = system: NCI-H23
OVCAR-8 = system: OVCAR-8
RPMI-8226 = system: RPMI-8226
SF-539 = system: SF-539
SN12C = system: SN12C
SNB-19 = system: SNB-19
T47D = system: T47D
UACC-62 = system: UACC-62
UO-31 = system: UO-31
HCC 2998 = system: HCC 2998

| SMILES | GI50 (A498) | GI50 (ACHN) | GI50 (CAKI-1) | GI50 (COLO 205) | GI50 (DU-145) | GI50 (EKVX) | GI50 (IGROV-1) | GI50 (MDA-MB-231) | GI50 (MDA-MB-435) | GI50 (MOLT-4) | GI50 (NCI-H23) | GI50 (OVCAR-8) | GI50 (RPMI-8226) | GI50 (SF-539) | GI50 (SN12C) | GI50 (SNB-19) | GI50 (T47D) | GI50 (UACC-62) | GI50 (UO-31) | GI50 (HCC 2998) |
| --- | --- | --- | --- | --- | --- | --- | --- | --- | --- | --- | --- | --- | --- | --- | --- | --- | --- | --- | --- | --- |
| Cc1cc(O)cc2c1c(=O)c1ccccc1n2C | 45.3 µM (inactive) | 89.7 µM (inactive) | > 100 µM (inactive) | > 100 µM (inactive) | > 100 µM (inactive) | > 100 µM (inactive) | > 100 µM (inactive) | > 100 µM (inactive) | > 100 µM (inactive) | 55.1 µM (inactive) | 38.9 µM (inactive) | 31.7 µM (inactive) | > 100 µM (inactive) | 32.5 µM (inactive) | > 100 µM (inactive) | 34.8 µM (inactive) | 73.5 µM (inactive) | > 100 µM (inactive) | > 100 µM (inactive) |  |
| O=C(Nc1ccccc1)Nn1c(-c2cccs2)nc2ccc(I)cc2c1=O |  | 27.5 µM (inactive) | 23.8 µM (inactive) | 21.4 µM (inactive) | 24.3 µM (inactive) | 20.9 µM (inactive) | 19.7 µM (inactive) |  | 20.1 µM (inactive) |  | 27.3 µM (inactive) | 33.3 µM (inactive) | 19.1 µM (inactive) | 33.7 µM (inactive) | 34.8 µM (inactive) | 42.2 µM (inactive) | 3.33 µM (inactive) | 28.7 µM (inactive) | 21.2 µM (inactive) | 25.8 µM (inactive) |
| O=C1C[C@@H](Sc2ccccc2)C2(OCCO2)C2ON3CCCC[C@H]3[C@H]12 (some centres undefined) | 30.5 µM (inactive) | 2.49 µM (inactive) | 7.71 µM (inactive) | 7.8 µM (inactive) | 12.1 µM (inactive) | 10.8 µM (inactive) | 5.48 µM (inactive) | 12.6 µM (inactive) | 11.7 µM (inactive) | 0.989 µM (active) | 9.38 µM (inactive) | 3.87 µM (inactive) | 3.07 µM (inactive) | 1.94 µM (inactive) | 3.82 µM (inactive) | 10.5 µM (inactive) | 16.2 µM (inactive) | 6.03 µM (inactive) | 3.75 µM (inactive) |  |
| CC(C)N1CC2CC(CN(C(=O)c3ccccc3)C2)C1.[O-][Cl+3]([O-])([O-])O | > 100 µM (inactive) | > 100 µM (inactive) | > 100 µM (inactive) | > 100 µM (inactive) |  | > 100 µM (inactive) | > 100 µM (inactive) |  |  | > 100 µM (inactive) | > 100 µM (inactive) | > 100 µM (inactive) | > 100 µM (inactive) | > 100 µM (inactive) | > 100 µM (inactive) | > 100 µM (inactive) |  | > 100 µM (inactive) | > 100 µM (inactive) | > 100 µM (inactive) |
| COc1cc(C2OC(N)=C(C#N)C3=C2C(C)CCC3)cc(OC)c1OC (centres undefined) |  | 97.9 µM (inactive) | > 100 µM (inactive) | > 100 µM (inactive) | 95.9 µM (inactive) | 37.2 µM (inactive) | 47.1 µM (inactive) | 30.3 µM (inactive) | > 100 µM (inactive) | 34.2 µM (inactive) | > 100 µM (inactive) | 63 µM (inactive) | > 100 µM (inactive) | 11.9 µM (inactive) | > 100 µM (inactive) | 72.3 µM (inactive) | 2.03 µM (inactive) | > 100 µM (inactive) | > 100 µM (inactive) |  |
| COC(=O)CSC(=S)Nc1nnc(NC(=S)SCOC(C)=O)n1C(=S)SCC(=O)OC | > 100 µM (inactive) | > 100 µM (inactive) | > 100 µM (inactive) | > 100 µM (inactive) | > 100 µM (inactive) | > 100 µM (inactive) | > 100 µM (inactive) |  | > 100 µM (inactive) | > 100 µM (inactive) | > 100 µM (inactive) |  | > 100 µM (inactive) |  | > 100 µM (inactive) | > 100 µM (inactive) |  | > 100 µM (inactive) | > 100 µM (inactive) | > 100 µM (inactive) |
| CC1=C(/C(C)=N/NC(=O)C(N)=O)Sc2ccccc2N1 | > 100 µM (inactive) | > 100 µM (inactive) | > 100 µM (inactive) | > 100 µM (inactive) |  | > 100 µM (inactive) | > 100 µM (inactive) |  |  | > 100 µM (inactive) | > 100 µM (inactive) | > 100 µM (inactive) | > 100 µM (inactive) | > 100 µM (inactive) | > 100 µM (inactive) | > 100 µM (inactive) |  | > 100 µM (inactive) | > 100 µM (inactive) | > 100 µM (inactive) |
| COc1cc(/C=C/C(=O)c2sc(Nc3ccccc3)nc2C)ccc1O | > 100 µM (inactive) | 50.5 µM (inactive) | 42.9 µM (inactive) | > 100 µM (inactive) |  | 19.8 µM (inactive) | > 100 µM (inactive) |  |  | 46 µM (inactive) | > 100 µM (inactive) | 96.8 µM (inactive) | 83.2 µM (inactive) | > 100 µM (inactive) | 59.6 µM (inactive) | > 100 µM (inactive) |  | 82.8 µM (inactive) | 43.6 µM (inactive) | > 100 µM (inactive) |
| NC(CCC(=O)O)(CCC(=O)O)CCC(=O)O |  | > 100 µM (inactive) | > 100 µM (inactive) | > 100 µM (inactive) | > 100 µM (inactive) | > 100 µM (inactive) | > 100 µM (inactive) | > 100 µM (inactive) | > 100 µM (inactive) | > 100 µM (inactive) | > 100 µM (inactive) | > 100 µM (inactive) | > 100 µM (inactive) | > 100 µM (inactive) | > 100 µM (inactive) | > 100 µM (inactive) | > 100 µM (inactive) | > 100 µM (inactive) | > 100 µM (inactive) |  |
| O=C(Nc1ccccc1)Oc1ccc(C(=S)Nc2ccc(Br)cc2)cc1 | 19.1 µM (inactive) | 23.3 µM (inactive) | 15.3 µM (inactive) | 17.2 µM (inactive) | 31.5 µM (inactive) | 5.13 µM (inactive) | 6.43 µM (inactive) |  | 16.9 µM (inactive) | 13.4 µM (inactive) | 17.5 µM (inactive) | 12.6 µM (inactive) | 36.6 µM (inactive) | 18.6 µM (inactive) |  |  | 22.2 µM (inactive) | 11 µM (inactive) |  | 21.6 µM (inactive) |
| OC(c1ccc(F)cc1)C(F)(F)c1nc(-c2ccccc2)no1 (centres undefined) | 22.6 µM (inactive) | 27.2 µM (inactive) | 27 µM (inactive) |  | 21.2 µM (inactive) | 22.9 µM (inactive) | > 100 µM (inactive) | 2.43 µM (inactive) | 19.4 µM (inactive) |  | 26.1 µM (inactive) | > 100 µM (inactive) |  |  | 21.6 µM (inactive) | 36.4 µM (inactive) | 23.7 µM (inactive) | 18.2 µM (inactive) | 19 µM (inactive) |  |
| Nc1ccc(Cc2ccc(N)c(C(=O)O)c2)cc1C(=O)O | > 100 µM (inactive) | > 100 µM (inactive) | > 100 µM (inactive) | > 100 µM (inactive) |  | > 100 µM (inactive) | > 100 µM (inactive) | > 100 µM (inactive) | > 100 µM (inactive) |  | > 100 µM (inactive) | > 100 µM (inactive) | > 100 µM (inactive) | > 100 µM (inactive) | > 100 µM (inactive) | > 100 µM (inactive) | > 100 µM (inactive) | > 100 µM (inactive) | > 100 µM (inactive) | > 100 µM (inactive) |
| CCOC(=O)n1c2ccccc2c(=O)n1CCO | > 100 µM (inactive) | > 100 µM (inactive) | > 100 µM (inactive) | > 100 µM (inactive) | > 100 µM (inactive) | > 100 µM (inactive) | > 100 µM (inactive) | > 100 µM (inactive) |  | > 100 µM (inactive) | > 100 µM (inactive) | > 100 µM (inactive) |  | > 100 µM (inactive) | > 100 µM (inactive) | > 100 µM (inactive) | 7.45 µM (inactive) | > 100 µM (inactive) | > 100 µM (inactive) | > 100 µM (inactive) |
| Cc1cc(C)c(-n2c(C)c(C)c(C#N)c2N)c(C)c1 | 29.3 µM (inactive) | 31.3 µM (inactive) | 43.3 µM (inactive) | 19.7 µM (inactive) | 38.1 µM (inactive) | 27.5 µM (inactive) | 37 µM (inactive) | 33.6 µM (inactive) | 23 µM (inactive) | 15.6 µM (inactive) | 39 µM (inactive) | 34.6 µM (inactive) | 18.6 µM (inactive) | 23.4 µM (inactive) | 27.2 µM (inactive) | 87.7 µM (inactive) | 26.3 µM (inactive) |  | 83.2 µM (inactive) |  |
| Cc1c(/N=N/c2ccc(Cl)cc2)c(-c2ccccc2)n(C2OC(CO)C(O)C(O)C2O)c(=S)c1C#N (centres undefined) | 7.87 µM (inactive) | 16 µM (inactive) | 18.1 µM (inactive) | 21.2 µM (inactive) | 19 µM (inactive) |  | 15.1 µM (inactive) | 20.3 µM (inactive) | 10.5 µM (inactive) | 8.04 µM (inactive) | 10.7 µM (inactive) |  | 25.2 µM (inactive) | 20.7 µM (inactive) | 16.6 µM (inactive) | 12.3 µM (inactive) | 19.1 µM (inactive) | 13.4 µM (inactive) | 19.8 µM (inactive) |  |
| Cc1cc(S(=O)(=O)O)ccc1/N=N/c1ccc(/N=N/c2c(O)ccc3ccccc23)c(C)c1 |  | 92.9 µM (inactive) | 53.2 µM (inactive) | > 100 µM (inactive) | > 100 µM (inactive) | 82 µM (inactive) | 54.7 µM (inactive) | 20.5 µM (inactive) | 37.9 µM (inactive) | 49.1 µM (inactive) | 33.2 µM (inactive) | 49.8 µM (inactive) | > 100 µM (inactive) |  | 89.7 µM (inactive) | > 100 µM (inactive) | > 100 µM (inactive) | 28.8 µM (inactive) | 80.4 µM (inactive) |  |
